We go through nine compounds from ChEMBL document CHEMBL1149222, “Synthesis and in vitro antimycobacterial activity of novel 3-(1H-pyrrol-1-yl)-2-oxazolidinone analogues of PNU-100480” (2004).

Format in all cases: functional
The subject of one test is MT4. The experiment in a line: Cytotoxicity of compound against mock-infected MT-4 cells was evaluated by MTT assay. The note with it: Homo sapiens. Background: Formazan colour is commonly taken as a measure of viable cells.
For test [1], the system named is Mycobacterium. The experiment in a line: In vitro anti-mycobacterial activity against Mycobacterium avium complex was determined.
Test [2] deals with Mycobacterium. The experiment in a line: (§1) In vitro anti-mycobacterial activity against Mycobacterium smegmatis determined by the MTT method.
Test [3] has as its system Mycolicibacterium smegmatis. The description is as §1.
Test [4] relates to Mycobacterium tuberculosis. The experiment in a line: In vitro anti-mycobacterial activity against Mycobacterium tuberculosis ATCC 27294 was determined.
In test [5] the test system is Mycobacterium tuberculosis. The experiment in a line: In vitro anti-mycobacterial activity against Mycobacterium tuberculosis C.I. 1104 was determined.
Test [6] relates to Mycolicibacterium fortuitum. The experiment in a line: In vitro anti-mycobacterial activity against Mycobacterium fortuitum was determined.
The test system of test [7] is Mycolicibacterium smegmatis. The experiment in a line: In vitro anti-mycobacterial activity against Mycobacterium smegmatis was determined.
In test [8] the test system is Mycobacterium tuberculosis. The experiment in a line: In vitro anti-mycobacterial activity against Mycobacterium tuberculosis ATCC 27294, determined by the MTT method.
In test [9] the test system is Mycobacterium tuberculosis. The experiment in a line: In vitro anti-mycobacterial activity against Mycobacterium tuberculosis C.I. 1104, determined by the MTT method.
Test [10] deals with Mycolicibacterium fortuitum. The experiment in a line: In vitro anti-mycobacterial activity against Mycobacterium fortuitum determined by the MTT method.

Structures are written as SMILES. In brackets after ≈: the same amount, converted by molar mass.

Broadly, the CC50 is the concentration that lowers cell viability or growth by half. Read a low CC50 as harm at low concentration. In general, MIC50 refers to an inhibitory concentration at the 50% level, which refers to growth in some studies and to a panel of isolates in others. The MIC90 is the lowest concentration that inhibits either 90% of growth or 90% of the strains tested, depending on the study. Consider `CC(=O)NC[C@H]1CN(c2ccc(N3CCSCC3)c(F)c2)C(=O)O1` [SUTEZOLID], for which the CC50 in the test with MT4 is > 100 µM. Also, the MIC50 in the test on Mycobacterium [1] was 0.7 µM (≈ 0.247 µg/mL); in [4], 0.1 µM (≈ 0.0353 µg/mL); in test [5], 0.5 µM (≈ 0.177 µg/mL); in [6], > 100 µM; in test [7] it was 0.5 µM (≈ 0.177 µg/mL). Moreover, the MIC90 amounted to 5 µM (≈ 1.77 µg/mL) against Mycobacterium [2], 1.6 µM (≈ 0.565 µg/mL) in test [3], 0.9 µM (≈ 0.318 µg/mL) in test [8] and 2.5 µM (≈ 0.884 µg/mL) in [9].

Turning to `CC(=O)NC[C@H]1CN(c2ccn(-c3ccc(F)cc3)c2)C(=O)O1`, the midpoint of cytotoxicity in the test on MT4, the CC50, lay at 100 µM. Also, the MIC50 is 1.4 µM (≈ 0.444 µg/mL) in the test with Mycobacterium [1], 1.9 µM (≈ 0.603 µg/mL) in test [4], > 100 µM in test [6] and 10.3 µM (≈ 3.27 µg/mL) in test [7]. Moreover, the values for the MIC90 (in the test on Mycobacterium [2]; in test [3]; in test [8]) were 5.8 µM (≈ 1.84 µg/mL), 45.8 µM (≈ 14.5 µg/mL) and 19.7 µM (≈ 6.25 µg/mL), respectively.

For the compound `CC(=O)NC[C@H]1CN(c2ccn(-c3cccc(F)c3)c2)C(=O)O1`, the CC50 in the test with MT4 was > 100 µM. Further, the MIC50 was 4.6 µM (≈ 1.46 µg/mL) in the test on Mycobacterium [1]; 12.9 µM (≈ 4.09 µg/mL) in test [4]; 9.4 µM (≈ 2.98 µg/mL) in [5]; > 100 µM in test [6]; 14.5 µM (≈ 4.6 µg/mL) in [7]. Besides, the MIC90 was found to be 39.8 µM (≈ 12.6 µg/mL) with Mycobacterium [2], 56.3 µM (≈ 17.9 µg/mL) in [3], 91.4 µM (≈ 29 µg/mL) in test [8] and 76.9 µM (≈ 24.4 µg/mL) in [9].

Take `CC(=O)NC[C@H]1CN(c2ccn(-c3ccccc3)c2)C(=O)O1`: in the test with MT4, the CC50 is > 100 µM. Further, the MIC50 against Mycobacterium [1] is 4 µM (≈ 1.2 µg/mL); in test [4], 19 µM (≈ 5.69 µg/mL); in [5] it was 10.5 µM (≈ 3.14 µg/mL); in [6], > 100 µM; in [7], 9.8 µM (≈ 2.93 µg/mL). Also, the MIC90 with Mycobacterium [2] worked out at 32.8 µM (≈ 9.82 µg/mL); in test [3], 41.3 µM (≈ 12.4 µg/mL); in test [8], 74 µM (≈ 22.2 µg/mL); in test [9] it was 77.8 µM (≈ 23.3 µg/mL).

On to `CC(=O)NC[C@H]1CN(c2ccn(N3CCOCC3)c2)C(=O)O1`, for which the CC50 with MT4 is > 100 µM. The MIC50 against Mycobacterium [1] was > 100 µM; in test [4], > 100 µM; in test [5] it was > 100 µM; in test [6], > 1000 µM; in test [7] it was > 100 µM.

For the compound `CC(=O)NC[C@H]1CN(c2ccn(-c3ccc(N4CCSCC4)c(F)c3)c2)C(=O)O1`, the CC50 with MT4 was 20 µM. Besides, the MIC50 against Mycobacterium [1] was 4.8 µM (≈ 2.01 µg/mL); in test [4] it was 9.8 µM (≈ 4.1 µg/mL); in [5], 12.2 µM (≈ 5.11 µg/mL); in test [6], > 100 µM; in test [7], 34 µM (≈ 14.2 µg/mL). The MIC90 against Mycobacterium [2] was 11.8 µM (≈ 4.94 µg/mL); in test [3], > 100 µM; in test [8], 25 µM (≈ 10.5 µg/mL); in [9] it was 31 µM (≈ 13 µg/mL).

For `CC(=O)NC[C@H]1CN(c2ccn(-c3ccc(N4CCOCC4)c(F)c3)c2)C(=O)O1`, in the test on MT4, the CC50 is > 100 µM. Moreover, the MIC50 is 16.5 µM (≈ 6.64 µg/mL) with Mycobacterium [1]; 12.9 µM (≈ 5.19 µg/mL) in [4]; 49 µM (≈ 19.7 µg/mL) in test [5]; > 100 µM in [6]; 42.6 µM (≈ 17.1 µg/mL) in test [7]. In addition, the MIC90 was 100 µM (≈ 40.2 µg/mL) in the test on Mycobacterium [2], > 100 µM in test [3], 100 µM (≈ 40.2 µg/mL) in test [8] and > 100 µM in test [9].

Take `CC(=O)NC[C@H]1CN(c2ccn(-c3ccccc3F)c2)C(=O)O1`: in the test on MT4, half-maximal cytotoxicity (CC50) was put at 33.3 µM. Further, the MIC50 with Mycobacterium [1] stood at 2 µM (≈ 0.635 µg/mL); in test [4] it was 3.6 µM (≈ 1.14 µg/mL); in [6] it was 88.6 µM (≈ 28.1 µg/mL); in [7] it was 4.2 µM (≈ 1.33 µg/mL). The MIC90 was 8.9 µM (≈ 2.82 µg/mL) against Mycobacterium [2], 15.7 µM (≈ 4.98 µg/mL) in test [3], > 100 µM in [10] and 24.7 µM (≈ 7.84 µg/mL) in [8].

Take `NNC(=O)c1ccncc1` [ISONIAZID]: in the test on MT4, the CC50 was > 100 µM. Further, the MIC50 was 1.4 µM (≈ 0.192 µg/mL) in the test on Mycobacterium [1]; 0.09 µM (≈ 0.0123 µg/mL) in test [4]; 0.06 µM (≈ 0.00823 µg/mL) in [5]; > 100 µM in test [6]; 1.8 µM (≈ 0.247 µg/mL) in test [7]. Besides, the MIC90 was 4.7 µM (≈ 0.645 µg/mL) against Mycobacterium [2], 6.7 µM (≈ 0.919 µg/mL) in [3], 9.8 µM (≈ 1.34 µg/mL) in test [8] and 0.2 µM (≈ 0.0274 µg/mL) in [9].
